Data as given in patent US9453014B2, “Cyclic amide derivatives as inhibitors of 11-β-hydroxysteroid dehydrogenase and uses thereof” (CONNEXIOS LIFE SCIENCES PVT. LTD., priority 2011, dated 2016).

molecular target: T1, human full length HSD11 β 1 (Homo sapiens, UniProt P28845); test: In Vitro HSD11β1 Inhibition Assay; type: cell-based; conditions: CHO cells transiently expressing human HSD11β1; 200 nM cortisone+500 uM NADPH overnight; cortisone to cortisol by LC/MS-MS; read-out: 11βHSD1 (IC50)
T1 construct: transient expression of human full length HSD11 β 1 expression vector; host or cells: CHO cells (transient transfection)
Protocol: In Vitro HSD11β1 Inhibition Assay:
CHO cells were maintained in Dulbecco's modified Eagle's medium/nutrient mixture F-12 containing 5% fetal bovine serum (v/v) and 2 mM glutamine. Cells were cultured at 37° C. with 5% CO2. For transient expression of human full length HSD11 β 1 expression vector (OriGene Technologies), cells were seeded at a density of 2×10^5 cells/well in a 6-well plate. Transfection was done using Turbofectin8 reagent (OriGene Technologies), according to the protocol provided with the reagent. After 24 hours post-transfection, cells were trypsinized and pooled together before they were re-seeding to 96-well plate at a density of 40000 cells/well. 24 hours after re-seeding, cells were incubated with 200 nM cortisone+500 uM NADPH (or along with small molecule inhibitors) overnight. The enzymatic activity or inhibition of enzyme activity was measured by estimating the conversion of cortisone to cortisol by LC/MS-MS method. The IC50 in nM was calculated from an 8 point log scale of concentration versus inhibition.

T1 sequence (P28845 whole entry): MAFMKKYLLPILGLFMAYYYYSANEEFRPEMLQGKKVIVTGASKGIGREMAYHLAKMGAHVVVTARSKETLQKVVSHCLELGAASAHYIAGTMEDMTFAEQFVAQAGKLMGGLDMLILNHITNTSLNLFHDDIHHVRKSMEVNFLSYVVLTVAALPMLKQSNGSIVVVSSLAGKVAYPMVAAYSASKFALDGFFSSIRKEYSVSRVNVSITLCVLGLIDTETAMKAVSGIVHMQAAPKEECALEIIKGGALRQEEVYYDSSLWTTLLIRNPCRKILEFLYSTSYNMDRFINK

Which IC50 does the source give for CC(CC(=O)N1CCCC2C(C(=O)O)CCCC21)c1c[nH]c2cccc(-c3ccco3)c12 (stereo not shown) [Compound 222, 1-{3-[4-(furan-2-yl)-1H-indol-3-yl]butanoyl}decahydroquinoline-5-carboxylic acid] here?
Its IC50 is 100 to 150 nM.

For CC(CC(=O)N1CCCC2CCCCC21)n1nc2cccc(Cl)c2n1 (stereo not shown) [Example 167, 3-(4-chloro-2H-benzotriazol-2-yl)-1-(octahydroquinolin-1(2H)-yl)butan-1-one], which IC50 is on record?
The IC50 was less than 100 nM.

Cc1cccc2[nH]cc(C(C)CC(=O)N3CCCC4(O)CCCCC34)c12 (stereo not shown) [Example 132, 1-(4a-hydroxyoctahydroquinolin-1(2H)-yl)-3-(4-methyl-1H-indol-3-yl)butan-1-one] was tested. Which IC50 did it give?
The IC50 was 150 to 200 nM.

For O=C(O)C1CCN(C(=O)CC(c2ccccc2)c2c[nH]c3cccc(F)c23)C2CCCCC12 (single isomer, unassigned) [Example 161, 1-[3-(4-fluoro-1H-indol-3-yl)-3-phenylpropanoyl]decahydroquinoline-4-carboxylic acid], which IC50 is on record?
Its IC50 is less than 100 nM.

With CC(C)C(CC(=O)N1CCC(=O)C2CCCCC21)c1c[nH]c2ccccc12 (stereo not shown) [Example 104, 1-[3-(1H-indol-3-yl)-4-methylpentanoyl]octahydroquinolin-4(1H)-one] as the compound, how does the IC50 read?
The IC50 was greater than 250 nM.

With CC1CCC2CCCCC2N1C(=O)CCc1c[nH]c2cc(F)ccc12 (stereo not shown) [Compound 40, 3-(6-fluoro-1H-indol-3-yl)-1-(2-methyloctahydroquinolin-1(2H)-yl)propan-1-one] as the compound, how does the IC50 read?
The IC50 was greater than 250 nM.

How did the IC50 turn out when CC(CC(=O)N1CCCC2C(C(=O)O)CCCC21)c1cn(C)c2cccc(C3CC3)c12 (single isomer, unassigned) [Compound 212, 1-[3-(4-cyclopropyl-1-methyl-1H-indol-3-yl)butanoyl]decahydroquinoline-5-carboxylic acid] was run?
The IC50 was greater than 250 nM.

Which IC50 does the source give for O=C(O)C1CCC2CCCCC2N1C(=O)CC(c1cccs1)c1c[nH]c2cccc(F)c12 (stereo not shown) [Example 170, 1-[3-(4-fluoro-1H-indol-3-yl)-3-(thiophen-2-yl)propanoyl]decahydroquinoline-2-carboxylic acid] here?
Its IC50 is greater than 250 nM.

With O=C(CCn1nnc2ccccc21)N1CCOC2CCCCC21 (stereo not shown) [Example 91, 3-(1H-benzotriazol-1-yl)-1-(octahydro-4H-1,4-benzoxazin-4-yl)propan-1-one] as the compound, how does the IC50 read?
Its IC50 is greater than 250 nM.

For CC(CC(=O)N1CCCC2(CO)CCCCC12)c1c[nH]c2cccc(Cl)c12 (stereo not shown) [Example 130, 3-(4-chloro-1H-indol-3-yl)-1-[4a-(hydroxymethyl)octahydroquinolin-1(2H)-yl]butan-1-one], which IC50 is on record?
Its IC50 is greater than 250 nM.

How did the IC50 turn out when CCC(CC(=O)N1CCC(C(=O)O)C2CCCCC21)c1c[nH]c2cccc(Cl)c12 (stereo not shown) [Example 187, 1-[3-(4-chloro-1H-indol-3-yl)pentanoyl]decahydroquinoline-4-carboxylic acid] was run?
Its IC50 is greater than 250 nM.

With CC(CC(=O)N1CCCC2CCCCC21)c1c[nH]c2ccccc12 (single isomer, unassigned) [Example 125, 3-(1H-indol-3-yl)-1-(octahydroquinolin-1(2H)-yl)butan-1-one] as the compound, how does the IC50 read?
Its IC50 is less than 100 nM.

Which IC50 does the source give for CC1CCC2CCCCC2N1C(=O)CCc1c[nH]c2ccccc12 (stereo not shown) [Compound 38, 3-(1H-indol-3-yl)-1-(2-methyloctahydroquinolin-1(2H)-yl)propan-1-one] here?
The IC50 was 150 to 200 nM.

How did the IC50 turn out when CC(CC(=O)N1CCC(=O)C2CCCCC21)c1c[nH]c2cccc(Cl)c12 (stereo not shown) [Compound 235, 1-[3-(4-chloro-1H-indol-3-yl)butanoyl]octahydroquinolin-4(1H)-one] was run?
Its IC50 is less than 100 nM.

For CC(CC(=O)N1CCCC2C(C(=O)O)CCCC21)c1c[nH]c2cccc(-c3ccc(F)o3)c12 (stereo not shown) [Compound 245, 1-{3-[4-(5-fluorofuran-2-yl)-1H-indol-3-yl]butanoyl}decahydroquinoline-5-carboxylic acid], which IC50 is on record?
The IC50 was less than 100 nM.

With COC(=O)C1CCN(C(=O)CCc2nc3ccccc3s2)C2CCCCC12 (stereo not shown) [Example 77, methyl 1-[3-(1,3-benzothiazol-2-yl)propanoyl]decahydroquinoline-4-carboxylate] as the compound, how does the IC50 read?
The IC50 was greater than 250 nM.

Which IC50 does the source give for COc1ccc2[nH]cc(CCC(=O)N3CCCC4CCCCC43)c2c1 (stereo not shown) [Compound 7, 3-(5-methoxy-1 fi-indol-3-yl)-1-(octahydroquinolin-1 (2H)-yl)propan-1-one] here?
Its IC50 is greater than 250 nM.

Which IC50 does the source give for CC(CC(=O)N1CCCC2CCCCC21)n1nnc2c(Cl)cccc21 (stereo not shown) [Example 166, 3-(4-chloro-1H-benzotriazol-1-yl)-1-(octahydroquinolin-1(2H)-yl)butan-1-one] here?
Its IC50 is greater than 250 nM.

With O=C(O)C1CCN(C(=O)CC(c2ccccc2)n2nnc3ccccc32)C2CCCCC12 (single isomer, unassigned) [Example 181, 1-[3-(1H-benzotriazol-1-yl)-3-phenylpropanoyl]decahydroquinoline-4-carboxylic acid] as the compound, how does the IC50 read?
The IC50 was greater than 250 nM.

Which IC50 does the source give for CC(C)C(CC(=O)N1CCCC2(C)CCCCC12)c1c[nH]c2cccc(F)c12 (stereo not shown) [Example 112, 3-(4-fluoro-1H-indol-3-yl)-4-methyl-1-(4a-methyloctahydroquinolin-1(2H)-yl)pentan-1-one] here?
Its IC50 is less than 100 nM.

For CC(CC(=O)N1CCCC2C(C(=O)O)CCCC21)c1c[nH]c2cccc(-c3ccco3)c12 (single isomer, unassigned) [Compound 224, 1-{3-[4-(furan-2-yl)-1H-indol-3-yl]butanoyl}decahydroquinoline-5-carboxylic acid], which IC50 is on record?
Its IC50 is less than 100 nM.

CC(C)Oc1cccc2[nH]cc(C(C)CC(=O)N3CCCC4C(C(=O)O)CCCC43)c12 (stereo not shown) [Compound 201, 1-{3-[4-(propan-2-yloxy)-1H-indol-3-yl]butanoyl}decahydroquinoline-5-carboxylic acid] was tested. Which IC50 did it give?
Its IC50 is less than 100 nM.

CC(CC(=O)N1CCCC2C(C(=O)O)CCCC21)c1c[nH]c2cccc(-c3ccc(F)cc3)c12 (stereo not shown) [Compound 254, 1-{3-[4-(4-fluorophenyl)-1H-indol-3-yl]butanoyl}decahydroquinoline-5-carboxylic acid] was tested. Which IC50 did it give?
The IC50 was greater than 250 nM.

With O=C(CCc1c[nH]c2cccc(F)c12)N1CCCC2CCCCC21 (stereo not shown) [Compound 44, 3-(4-fluoro-1H-indol-3-yl)-1-(octahydroquinolin-1(2H)-yl)propan-1-one] as the compound, how does the IC50 read?
The IC50 was less than 100 nM.

How did the IC50 turn out when CC(CC(=O)N1CCCC2(CO)CCCCC12)c1c[nH]c2ccccc12 (stereo not shown) [Example 131, 1-[4a-(hydroxymethyl)octahydroquinolin-1(2H)-yl]-3-(1H-indol-3-yl)butan-1-one] was run?
The IC50 was greater than 250 nM.

With Cc1cccc2nn(C(C)CC(=O)N3CCC(C(=O)O)C4CCCCC43)nc12 (stereo not shown) [Example 169, 1-[3-(4-methyl-2H-benzotriazol-2-yl)butanoyl]decahydroquinoline-4-carboxylic acid] as the compound, how does the IC50 read?
The IC50 was greater than 250 nM.

Which IC50 does the source give for O=C(CCc1nc2ccccc2s1)N1CCO[C@@H]2CCCC[C@H]21 (relative stereo) [Example 79, 3-(1,3-benzothiazol-2-yl)-1-[trans-(4a,8a)-octahydro-4H-1,4-benzoxazin-4-yl]propan-1-one] here?
Its IC50 is greater than 250 nM.

For CC(CC(=O)N1CCCC2C(C(=O)O)CCCC21)c1c[nH]c2cccc(-c3ccc(F)cc3)c12 (single isomer, unassigned) [Compound 256, 1-{3-[4-(4-fluorophenyl)-1H-indol-3-yl]butanoyl}decahydroquinoline-5-carboxylic acid], which IC50 is on record?
Its IC50 is greater than 250 nM.

With O=C(O)C1CC2CCCCC2N(C(=O)CC(c2ccccc2)c2c[nH]c3cccc(F)c23)C1 (stereo not shown) [Example 176, 1-[3-(4-fluoro-1H-indol-3-yl)-3-phenylpropanoyl]decahydroquinoline-3-carboxylic acid] as the compound, how does the IC50 read?
The IC50 was 150 to 200 nM.

Which IC50 does the source give for CCOC(=O)C12CCCCC1N(C(=O)CC(C)c1nc3ccccc3s1)CCC2 (stereo not shown) [Example 141, ethyl 1-[3-(1,3-benzothiazol-2-yl)butanoyl]octahydroquinoline-4a(2H)-carboxylate] here?
Its IC50 is greater than 250 nM.

For Cn1cc(C(C)(C)CC(=O)N2CCOC3CCCCC32)c2ccccc21 (stereo not shown) [Compound 71, 3-methyl-3-(1-methyl-1H-indol-3-yl)-1-(octahydro-4H-1,4-benzoxazin-4-yl)butan-1-one], which IC50 is on record?
Its IC50 is 150 to 200 nM.

Cc1cccc2c1c(CCC(=O)N1CCO[C@@H]3CCCC[C@H]31)cn2C (single isomer, unassigned) [Compound 65, 3-(1,4-dimethyl-1H-Indol-3-yl)-1-[trans-(4a,8a)-octahydro-4H-1,4-benzoxazin-4-yl]propan-1-one] was tested. Which IC50 did it give?
The IC50 was greater than 250 nM.

With CC(CC(=O)N1CCCC2C(C(=O)O)CCCC21)c1c[nH]c2cccc(-c3ccco3)c12 (stereo not shown) [Compound 221, 1-{3-[4-(furan-2-yl)-1H-indol-3-yl]butanoyl}decahydroquinoline-5-carboxylic acid] as the compound, how does the IC50 read?
Its IC50 is less than 100 nM.

How did the IC50 turn out when O=C(O)Cn1cc(CCC(=O)N2CCCC3CCCCC32)c2ccccc21 (stereo not shown) [Compound 46, {3-[3-(octahydroquinolin-1(2H)-yl)-3-oxopropyl]-1H-indol-1-yl}acetic acid] was run?
The IC50 was greater than 250 nM.

For CC(C)C(CC(=O)N1CCCC2CCCCC21)c1c[nH]c2ncccc12 (stereo not shown) [Example 164, 4-methyl-1-(octahydroquinolin-1(2H)-yl)-3-(1H-pyrrolo[2,3-b]pyridin-3-yl)pentan-1-one], which IC50 is on record?
Its IC50 is 100 to 150 nM.

CC(CC(=O)N1CCC(C(=O)O)C2CCCCC21)c1c[nH]c2cccc(C3CC3)c12 (stereo not shown) [Compound 194, 1-[3-(4-cyclopropyl-1H-indol-3-yl)butanoyl]decahydroquinoline-4-carboxylic acid] was tested. Which IC50 did it give?
Its IC50 is greater than 250 nM.

For O=C(O)C1CCCC2C1CCCN2C(=O)CC(O)(c1c[nH]c2ccccc12)C(F)(F)F (stereo not shown) [Compound 265, 1-[4,4,4-trifluoro-3-hydroxy-3-(1H-Indol-3-yl)butanoyl]-decahydroquinoline-5-carboxylic acid], which IC50 is on record?
The IC50 was greater than 250 nM.
